Measurements from ChEMBL document CHEMBL5247625, “Discovery and characterization of novel potent BCR-ABL degraders by conjugating allosteric inhibitor” (Eur J Med Chem, 2022).
Activity calls are given as the source filed them. The calls are words filed in the database; no cut-off is given here.

How the values were obtained:
[1] = target: T1, Protein cereblon/Tyrosine-protein kinase ABL1/Breakpoint cluster region protein (Homo sapiens, UniProt P00519+P11274+Q96SW2); experiment: Protac activity at CRBN/BCR-ABL in human K562 cells assessed as increase in BCR-ABL degradation at 5 nM by Western blotting analysis; type: cell-based
T1 sequence (P00519 whole entry, looked up): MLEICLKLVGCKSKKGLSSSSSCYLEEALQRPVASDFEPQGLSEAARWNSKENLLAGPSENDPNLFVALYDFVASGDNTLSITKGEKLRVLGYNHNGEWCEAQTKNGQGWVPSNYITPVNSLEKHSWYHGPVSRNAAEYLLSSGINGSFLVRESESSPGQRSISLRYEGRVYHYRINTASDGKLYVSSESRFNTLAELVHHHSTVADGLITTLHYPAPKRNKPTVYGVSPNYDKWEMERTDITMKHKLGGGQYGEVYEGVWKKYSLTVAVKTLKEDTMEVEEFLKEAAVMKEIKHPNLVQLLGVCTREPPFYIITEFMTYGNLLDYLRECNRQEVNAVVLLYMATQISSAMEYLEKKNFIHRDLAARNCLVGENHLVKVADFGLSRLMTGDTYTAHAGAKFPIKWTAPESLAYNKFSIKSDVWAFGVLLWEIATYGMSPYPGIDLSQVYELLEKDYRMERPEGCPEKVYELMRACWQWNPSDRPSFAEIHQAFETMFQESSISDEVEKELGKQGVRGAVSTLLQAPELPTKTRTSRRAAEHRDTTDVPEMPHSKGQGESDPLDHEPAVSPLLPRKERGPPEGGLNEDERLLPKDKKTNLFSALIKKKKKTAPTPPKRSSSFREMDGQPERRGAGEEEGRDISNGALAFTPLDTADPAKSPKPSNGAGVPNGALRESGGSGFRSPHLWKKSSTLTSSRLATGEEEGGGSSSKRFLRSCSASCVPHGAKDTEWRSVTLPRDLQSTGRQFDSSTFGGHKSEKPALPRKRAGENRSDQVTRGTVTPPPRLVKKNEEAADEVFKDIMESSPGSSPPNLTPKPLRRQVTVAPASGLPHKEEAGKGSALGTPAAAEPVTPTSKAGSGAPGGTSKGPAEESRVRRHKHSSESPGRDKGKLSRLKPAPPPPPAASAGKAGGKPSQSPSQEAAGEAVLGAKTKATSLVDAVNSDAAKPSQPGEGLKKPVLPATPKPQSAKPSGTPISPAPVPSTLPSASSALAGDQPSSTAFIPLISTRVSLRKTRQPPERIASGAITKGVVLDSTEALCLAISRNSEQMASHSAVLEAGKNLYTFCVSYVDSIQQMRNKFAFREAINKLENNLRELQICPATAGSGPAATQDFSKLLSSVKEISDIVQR
T1 sequence (P11274 whole entry, looked up): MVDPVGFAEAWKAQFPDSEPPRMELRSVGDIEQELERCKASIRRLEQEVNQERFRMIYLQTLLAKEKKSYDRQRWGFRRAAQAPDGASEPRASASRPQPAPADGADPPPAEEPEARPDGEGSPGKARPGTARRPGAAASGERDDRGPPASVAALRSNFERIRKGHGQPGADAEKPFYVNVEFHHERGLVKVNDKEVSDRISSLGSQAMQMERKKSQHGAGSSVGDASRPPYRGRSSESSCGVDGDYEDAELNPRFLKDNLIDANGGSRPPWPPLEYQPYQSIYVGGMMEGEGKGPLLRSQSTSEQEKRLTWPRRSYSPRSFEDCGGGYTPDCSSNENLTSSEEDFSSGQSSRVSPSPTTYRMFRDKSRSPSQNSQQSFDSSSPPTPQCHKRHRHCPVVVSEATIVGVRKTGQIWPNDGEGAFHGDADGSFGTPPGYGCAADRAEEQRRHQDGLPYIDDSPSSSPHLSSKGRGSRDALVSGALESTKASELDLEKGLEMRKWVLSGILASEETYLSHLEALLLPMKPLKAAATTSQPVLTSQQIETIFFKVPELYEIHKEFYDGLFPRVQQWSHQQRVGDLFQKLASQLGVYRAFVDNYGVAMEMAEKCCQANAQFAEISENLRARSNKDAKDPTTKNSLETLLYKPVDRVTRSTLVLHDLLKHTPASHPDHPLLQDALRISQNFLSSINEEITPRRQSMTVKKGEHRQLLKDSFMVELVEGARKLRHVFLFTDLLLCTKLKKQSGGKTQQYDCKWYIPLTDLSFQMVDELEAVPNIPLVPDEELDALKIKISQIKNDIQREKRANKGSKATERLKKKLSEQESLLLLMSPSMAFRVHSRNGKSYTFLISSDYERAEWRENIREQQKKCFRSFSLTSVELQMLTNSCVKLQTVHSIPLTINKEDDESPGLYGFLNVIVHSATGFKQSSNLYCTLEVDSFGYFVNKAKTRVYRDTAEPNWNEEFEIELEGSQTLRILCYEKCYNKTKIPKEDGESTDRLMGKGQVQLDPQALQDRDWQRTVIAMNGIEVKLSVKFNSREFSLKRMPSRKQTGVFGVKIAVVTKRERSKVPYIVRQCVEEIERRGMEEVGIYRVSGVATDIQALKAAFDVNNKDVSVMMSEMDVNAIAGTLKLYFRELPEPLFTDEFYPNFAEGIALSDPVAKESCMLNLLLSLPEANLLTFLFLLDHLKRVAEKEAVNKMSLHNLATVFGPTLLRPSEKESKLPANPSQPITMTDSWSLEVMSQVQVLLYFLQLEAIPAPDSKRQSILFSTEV
T1 sequence (Q96SW2 whole entry, looked up): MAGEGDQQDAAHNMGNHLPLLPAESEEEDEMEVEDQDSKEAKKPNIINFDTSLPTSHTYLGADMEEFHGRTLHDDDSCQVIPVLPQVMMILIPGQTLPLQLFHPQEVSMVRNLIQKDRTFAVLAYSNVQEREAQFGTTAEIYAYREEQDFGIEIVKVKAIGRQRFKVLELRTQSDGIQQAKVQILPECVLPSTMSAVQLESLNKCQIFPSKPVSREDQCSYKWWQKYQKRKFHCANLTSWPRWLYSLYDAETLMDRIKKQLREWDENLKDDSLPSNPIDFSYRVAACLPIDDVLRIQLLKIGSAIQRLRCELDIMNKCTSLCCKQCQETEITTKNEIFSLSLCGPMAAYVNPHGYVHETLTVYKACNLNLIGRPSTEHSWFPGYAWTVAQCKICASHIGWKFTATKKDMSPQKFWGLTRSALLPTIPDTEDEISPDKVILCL

[2] = target: T1, Protein cereblon/Tyrosine-protein kinase ABL1/Breakpoint cluster region protein; experiment: Protac activity at CRBN/BCR-ABL in human K562 cells assessed as increase in BCR-ABL degradation at 100 nM by Western blotting analysis; type: cell-based
[3] = Apparent permeability in human Caco-2 cells incubated for 120 mins by LC-MS/MS analysis; type: ADME, cell-based; conditions: caco-2, 2 h
[4] = target: Tyrosine-protein kinase ABL1 (Homo sapiens, UniProt P00519); experiment: Binding affinity to recombinant ABL (unknown origin)
Tyrosine-protein kinase ABL1, sequence (P00519 whole entry, the tested form may be a part): as the sequence (P00519 whole entry, looked up) above

[5] = target: T2, Bcr/Abl fusion protein (Homo sapiens) (UniProt P00519+P11274); experiment: Inhibition of BCR-ABL phosphorylation at Tyr245 residue in human K562 cells at 0.3 to 100 nM incubated for 16 hrs by Western blotting analysis; type: cell-based; conditions: dose 0.3-100 nM
T2 sequence (P00519 whole entry, looked up, the tested form may be a part): as the sequence (P00519 whole entry, looked up) above
T2 sequence (P11274 whole entry, looked up, the tested form may be a part): as the sequence (P11274 whole entry, looked up) above

[6] = target: Crk-like protein (Homo sapiens) (UniProt P46109); experiment: Inhibition of CRKL phosphorylation at Tyr207 residue in human K562 cells at 0.3 to 100 nM incubated for 16 hrs by Western blotting analysis; type: cell-based; conditions: dose 0.3-100 nM
Crk-like protein (Homo sapiens), sequence (P46109 whole entry): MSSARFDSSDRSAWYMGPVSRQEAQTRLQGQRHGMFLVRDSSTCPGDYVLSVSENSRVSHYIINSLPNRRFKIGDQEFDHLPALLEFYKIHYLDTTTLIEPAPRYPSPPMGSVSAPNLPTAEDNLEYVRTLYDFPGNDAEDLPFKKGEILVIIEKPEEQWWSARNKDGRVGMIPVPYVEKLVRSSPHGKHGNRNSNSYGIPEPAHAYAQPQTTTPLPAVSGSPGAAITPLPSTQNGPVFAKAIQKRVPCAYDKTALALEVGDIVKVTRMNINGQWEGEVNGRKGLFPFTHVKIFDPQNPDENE

[7] = target: T1, Protein cereblon/Tyrosine-protein kinase ABL1/Breakpoint cluster region protein; experiment: Protac activity at CRBN/BCR-ABL in human K562 cells assessed as induction of BCR-ABL degradation at 100 nM by Western blotting analysis; type: cell-based; conditions: time 4.0 hrs, TDE = time-dependent effect
[8] = target: T1, Protein cereblon/Tyrosine-protein kinase ABL1/Breakpoint cluster region protein; experiment: Protac activity at CRBN/BCR-ABL in human K562 cells assessed as BCR-ABL turnover rate in presence of cycloheximide by Western blotting analysis; type: cell-based
[9] = target: T1, Protein cereblon/Tyrosine-protein kinase ABL1/Breakpoint cluster region protein; experiment: Protac activity at CRBN/BCR-ABL in human K562 cells assessed as c-ABL turnover rate in presence of cycloheximide by Western blotting analysis; type: cell-based
[10] = target: T1, Protein cereblon/Tyrosine-protein kinase ABL1/Breakpoint cluster region protein; experiment: Protac activity at CRBN/BCR-ABL in human K562 cells assessed as induction of BCR-ABL degradation at 100 nM pretreated with MLN4924 for 2 hrs followed by compound addition measured after 8 hrs by Western blotting analysis; type: cell-based; conditions: time 10.0 hrs
[11] = target: T1, Protein cereblon/Tyrosine-protein kinase ABL1/Breakpoint cluster region protein; experiment: Protac activity at CRBN/BCR-ABL in human K562 cells assessed as induction of c-ABL degradation at 100 nM pretreated with MLN4924 for 2 hrs followed by compound addition measured after 8 hrs by Western blotting analysis; type: cell-based; conditions: time 10.0 hrs
[12] = target: T2, Bcr/Abl fusion protein (Homo sapiens); experiment: Inhibition of BCR-ABL phosphorylation at Tyr245 residue in human K562 cells at 100 nM by Western blotting analysis; type: cell-based; conditions: time <= 18.0 hrs, TDE = time-dependent effect
[13] = target: T3, Signal transducer and activator of transcription 5A (Homo sapiens) (UniProt P42229); experiment: Inhibition of STAT5 phosphorylation at Tyr694 residue in human K562 cells at 100 nM by Western blotting analysis; type: cell-based; conditions: time <= 18.0 hrs, TDE = time-dependent effect
T3 sequence (whole entry): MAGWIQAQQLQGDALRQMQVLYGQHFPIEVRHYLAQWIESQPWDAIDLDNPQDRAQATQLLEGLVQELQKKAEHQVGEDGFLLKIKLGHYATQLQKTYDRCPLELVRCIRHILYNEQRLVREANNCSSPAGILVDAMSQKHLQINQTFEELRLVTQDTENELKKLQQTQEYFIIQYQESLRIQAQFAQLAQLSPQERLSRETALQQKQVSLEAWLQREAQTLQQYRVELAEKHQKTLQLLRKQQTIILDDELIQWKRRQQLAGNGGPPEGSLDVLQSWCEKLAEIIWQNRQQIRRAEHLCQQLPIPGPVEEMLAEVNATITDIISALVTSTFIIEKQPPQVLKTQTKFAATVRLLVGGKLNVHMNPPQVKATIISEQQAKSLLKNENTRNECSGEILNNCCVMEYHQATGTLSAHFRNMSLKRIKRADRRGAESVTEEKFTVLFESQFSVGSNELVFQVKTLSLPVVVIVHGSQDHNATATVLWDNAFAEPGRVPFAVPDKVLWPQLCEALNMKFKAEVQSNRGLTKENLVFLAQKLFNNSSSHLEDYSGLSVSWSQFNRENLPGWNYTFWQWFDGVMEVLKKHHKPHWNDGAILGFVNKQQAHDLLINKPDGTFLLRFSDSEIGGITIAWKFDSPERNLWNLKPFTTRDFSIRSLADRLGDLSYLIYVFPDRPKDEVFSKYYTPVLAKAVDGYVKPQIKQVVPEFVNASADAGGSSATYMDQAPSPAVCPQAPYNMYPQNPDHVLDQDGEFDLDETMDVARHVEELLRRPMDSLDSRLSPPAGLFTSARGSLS

[14] = target: Crk-like protein (Homo sapiens) (UniProt P46109); experiment: Inhibition of CRKL phosphorylation at Tyr207 residue in human K562 cells at 100 nM by Western blotting analysis; type: cell-based; conditions: time <= 18.0 hrs, TDE = time-dependent effect
[15] = target: T1, Protein cereblon/Tyrosine-protein kinase ABL1/Breakpoint cluster region protein; experiment: Protac activity at CRBN/BCR-ABL in human K562 cells assessed as increase in BCR-ABL degradation at 100 nM incubated for 6 hrs followed by compound washout measured upto 96 hrs by Western blotting analysis; type: cell-based
[16] = target: T2, Bcr/Abl fusion protein (Homo sapiens); experiment: Inhibition of BCR-ABL phosphorylation at Tyr245 residue in human K562 cells at 100 nM incubated for 6 hrs followed by compound washout measured upto 96 hrs by Western blotting analysis; type: cell-based
K562 [17] = experiment: Induction of cell death in human K562 cells assessed as inhibition of cell growth at 100 nM incubated for 6 hrs followed by compound washout measured upto 96 hrs; type: functional, cell-based
K562 [18] = experiment: Down regulation of […] expression in human K562 cells at 100 nM measured after 16 hrs by LC-MS analysis; type: functional, cell-based
[19] = test system: Protein cereblon/Tyrosine-protein kinase ABL1/Breakpoint cluster region protein (Mus musculus), P00520+Q6PAJ1+Q8C7D2 [T315I]; experiment: Protac activity at CRBN/BCR-ABL T315I mutant in mouse 32D cells assessed as increase in BCR-ABL degradation at 1 to 1000 nM by Western blotting analysis; type: cell-based; conditions: dose 1-1000 nM
[20] = test system: Protein cereblon/Tyrosine-protein kinase ABL1/Breakpoint cluster region protein (Mus musculus), P00519+P11274+Q8C7D2 [T315M]; experiment: Protac activity at CRBN/asciminib resistance BCR-ABL T315M mutant in mouse 32D cells assessed as increase in BCR-ABL degradation at 1 to 1000 nM by Western blotting analysis; type: cell-based; conditions: dose 1-1000 nM
[21] = test system: Protein cereblon/Tyrosine-protein kinase ABL1/Breakpoint cluster region protein (Mus musculus), P00519+P11274+Q8C7D2 [G671R]; experiment: Protac activity at CRBN/asciminib resistance BCR-ABL G671R mutant in mouse 32D cells assessed as increase in BCR-ABL degradation at 1 to 1000 nM by Western blotting analysis; type: cell-based; conditions: dose 1-1000 nM
[22] = test system: Protein cereblon/Tyrosine-protein kinase ABL1/Breakpoint cluster region protein (Mus musculus), P00519+P11274+Q8C7D2 [Y253H/E255V]; experiment: Protac activity at CRBN/BCR-ABL Y253H/E255V double mutant in mouse 32D cells assessed as increase in p-BCR-ABL degradation at 1 to 1000 nM by Western blotting analysis; type: cell-based; conditions: dose 1-1000 nM
K562 [23] = experiment: cells; conditions: Homo sapiens, K562, 48 h
Description: Antiproliferative activity against human K562 cells assessed as inhibition of cell growth incubated for 2 days by CCK8 assay

SMILES: O=C1CCC(N2Cc3c(SCCCCCCN4CCN(C5CCN(c6ncc(C(=O)Nc7ccc(OC(F)(F)Cl)cc7)cc6-c6ccn[nH]6)CC5)CC4)cccc3C2=O)C(=O)N1 (stereo not drawn)
- Activity [1]: 81.8%
- Activity [2]: 91.2%
- Papp [3]: Impermeable
- Kd [4]: 4.74 µM
- inhibition [5]: Active
- inhibition [6]: Active
- Activity [7]: Tde
- Activity [8]: Active
- Activity [9]: Active
- Activity [10]: inactive
- Activity [11]: inactive
- inhibition [12]: Tde
- inhibition [13]: Tde
- inhibition [14]: Tde
- Activity [15]: inactive
- inhibition [16]: inactive
- Activity (K562 [17]): Active
- Activity (K562 [18]): Active
- Activity [19]: Active
- Activity [20]: Active
- Activity [21]: Active
- Activity [22]: Active
- IC50 (K562 [23]): 0.012 µM
